Test results taken from ChEMBL document CHEMBL3351946, “Design and synthesis of potent antitumor water-soluble phenyl N-mustard-benzenealkylamide conjugates via a bioisostere approach” (Eur J Med Chem, 2014).
Active and inactive are the calls of the source. The calls are words filed in the database; no cut-off is given here.

Assays:
[1] = test system: HT-29; assay: Cytotoxicity against human HT-29 cells assessed as growth inhibition after 72 hrs by Alamar Blue assay; assay type: functional, cell-based; conditions: HT-29, 72 h
[2] = Cytotoxicity against human H3347 cells assessed as growth inhibition after 72 hrs by Alamar Blue assay; assay type: functional, cell-based; conditions: H3347, 72 h
[3] = Cytotoxicity against human DLD1 cells assessed as growth inhibition after 72 hrs by Alamar Blue assay; assay type: functional, cell-based; conditions: DLD-1, 72 h
[4] = Antitumor activity against human HCT116 cells xenografted in nude mouse assessed as tumor growth inhibition at 30 mg/kg,iv qd administered for 6 days measured on day 15 relative to control; assay type: functional, HCT-116
[5] = Antitumor activity against human H3347 cells xenografted in nude mouse assessed as tumor growth inhibition at 30 mg/kg,iv qd administered for 6 days measured on day 16 relative to control; assay type: functional
[6] = Antitumor activity against human H3347 cells xenografted in nude mouse assessed as tumor growth inhibition at 30 mg/kg,iv qd administered for 6 days measured on day 31 relative to control; assay type: functional; conditions: read-out: TGI
[7] = Antitumor activity against human HCT116 cells xenografted in nude mouse assessed as tumor growth inhibition at 30 mg/kg,iv qd administered for 6 days measured on day 31 relative to control; assay type: functional; conditions: HCT-116, iv, read-out: TGI
[8] = test system: Mus musculus; assay: Toxicity in nude mouse xenografted with human HCT116 cells assessed as body weight loss at 30 mg/kg,iv qd administered for 6 days measured on day 13 relative to control; assay type: organism-based, HCT-116; parameters: dose 30 mg/kg; conditions: in vivo, 144 h
[9] = test system: Mus musculus; assay: Toxicity in nude mouse xenografted with human H3347 cells assessed as body weight loss at 30 mg/kg,iv qd administered for 6 days; assay type: organism-based; parameters: dose 30 mg/kg; conditions: in vivo, 144 h
[10] = test system: Mus musculus; assay: Toxicity in nude mouse xenografted with human HCT116 cells assessed as change in body weight at 30 mg/kg,iv qd administered for 6 days measured on day 31 relative to control; assay type: organism-based, HCT-116; parameters: dose 30 mg/kg; conditions: in vivo, 144 h
[11] = test system: Mus musculus; assay: Toxicity in nude mouse xenografted with human H3347 cells assessed as change in body weight at 30 mg/kg,iv qd administered for 6 days measured on day 31 relative to control; assay type: organism-based; parameters: dose 30 mg/kg; conditions: in vivo, 144 h
[12] = test system: HCT-116; assay: Antitumor activity against human HCT116 cells xenografted in nude mouse assessed as survival at 30 mg/kg,iv qd administered for 6 days; assay type: functional, organism-based; parameters: dose 30 mg/kg
[13] = test system: H3347; assay: Antitumor activity against human H3347 cells xenografted in nude mouse assessed as survival at 30 mg/kg,iv qd administered for 6 days; assay type: functional, organism-based; parameters: dose 30 mg/kg
[14] = test system: CCRF-CEM; assay: Cytotoxicity against human CCRF-CEM cells assessed as growth inhibition after 72 hrs by Alamar Blue assay; assay type: functional, cell-based
[15] = test system: CCRF-CEM; assay: Cytotoxicity against vinblastine-resistant human CCRF-CEM cells assessed as growth inhibition after 72 hrs by Alamar Blue assay; assay type: functional, cell-based
[16] = Cytotoxicity against human PC3 cells assessed as growth inhibition after 72 hrs by Alamar Blue assay; assay type: functional, cell-based; conditions: PC-3, 72 h
[17] = Cytotoxicity against human H460 cells assessed as growth inhibition after 72 hrs by Alamar Blue assay; assay type: functional, cell-based; conditions: NCI-H460, 72 h
[18] = Cytotoxicity against human H1299 cells assessed as growth inhibition after 72 hrs by Alamar Blue assay; assay type: functional, cell-based; conditions: NCI-H1299, 72 h
[19] = Cytotoxicity against human HCT116 cells assessed as growth inhibition after 72 hrs by Alamar Blue assay; assay type: functional, cell-based; conditions: HCT-116, 72 h
[20] = test system: CCRF-CEM; assay: Resistance factor, ratio of IC50 for vinblastine-resistant human CCRF-CEM cells to IC50 for human CCRF-CEM cells; assay type: functional
[21] = Antitumor activity against human HCT116 cells xenografted in nude mouse assessed as tumor growth inhibition at 30 mg/kg,iv qd administered for 6 days measured on day 13 relative to control; assay type: functional, HCT-116
[22] = Antitumor activity against human HCT116 cells xenografted in nude mouse assessed as tumor growth inhibition at 30 mg/kg,iv qd administered for 6 days measured on day 30 relative to control; assay type: functional; conditions: HCT-116, iv, read-out: TGI
[23] = test system: Mus musculus; assay: Toxicity in nude mouse xenografted with human HCT116 cells assessed as change in body weight at 30 mg/kg,iv qd administered for 6 days measured on day 30 relative to control; assay type: organism-based, HCT-116; parameters: dose 30 mg/kg; conditions: in vivo, 144 h
[24] = Induction of pEGFP-N1 DNA (unknown origin) interstand crosslinking after 2 hrs by alkaline agarose gel shift assay
[25] = Toxicity in mouse; assay type: organism-based; conditions: in vivo
[26] = Acute toxicity in iv dosed mouse administered for 14 days; assay type: organism-based; conditions: in vivo
[27] = Antitumor activity against human PC3 cells xenografted in nude mouse assessed as tumor growth inhibition at 40 mg/kg,iv administered every 2 days for 5 doses measured on day 28 to 31 relative to control; assay type: functional, PC-3
[28] = Antitumor activity against human H460 cells xenografted in nude mouse assessed as tumor growth inhibition at 30 mg/kg,iv qd administered for 6 days measured on day 15 relative to control; assay type: functional, NCI-H460
[29] = Antitumor activity against human PC3 cells xenografted in nude mouse assessed as tumor growth inhibition at 40 mg/kg,iv administered every 2 days for 5 doses measured on day 38 relative to control; assay type: functional; conditions: PC-3, iv, read-out: TGI
[30] = Antitumor activity against human H460 cells xenografted in nude mouse assessed as tumor growth inhibition at 30 mg/kg,iv qd administered for 6 days measured on day 37 relative to control; assay type: functional; conditions: NCI-H460, iv, read-out: TGI
[31] = test system: Mus musculus; assay: Toxicity in nude mouse xenografted with human PC3 cells assessed as body weight loss at 40 mg/kg,iv administered every 2 days for 5 doses measured on day 13 relative to control; assay type: organism-based, PC-3; parameters: dose 40 mg/kg; conditions: in vivo, 48 h
[32] = test system: Mus musculus; assay: Toxicity in nude mouse xenografted with human H460 cells assessed as body weight loss at 30 mg/kg,iv qd administered for 6 days measured on day 15 relative to control; assay type: organism-based; parameters: dose 30 mg/kg; conditions: in vivo, 144 h
[33] = test system: Mus musculus; assay: Toxicity in nude mouse xenografted with human PC3 cells assessed as change in body weight at 40 mg/kg,iv administered every 2 days for 5 doses measured on day 38 relative to control; assay type: organism-based, PC-3; parameters: dose 40 mg/kg; conditions: in vivo, 48 h
[34] = test system: Mus musculus; assay: Toxicity in nude mouse xenografted with human H460 cells assessed as body weight loss at 30 mg/kg,iv qd administered for 6 days measured on day 37 relative to control; assay type: organism-based; parameters: dose 30 mg/kg; conditions: in vivo, 144 h
[35] = test system: NCI-H460; assay: Antitumor activity against human H460 cells xenografted in nude mouse assessed as survival at 30 mg/kg,iv qd administered for 6 days; assay type: functional, organism-based; parameters: dose 30 mg/kg

| Structure (SMILES) | IC50 [1] [µM] | IC50 [2] [µM] | IC50 [3] [µM] | %max [4] [%] | inhibition in vivo at 30 mg/kg [7] [%] | body weight change relative to control [8] [%] | Activity [10] [%] | Activity [12] | IC50 [15] [µM] | IC50 [16] [µM] | IC50 [17] [µM] | IC50 [18] [µM] | IC50 [19] [µM] | Ratio IC50 [20] | further results |
| --- | --- | --- | --- | --- | --- | --- | --- | --- | --- | --- | --- | --- | --- | --- | --- |
| CCc1c2c(nc3ccc(OC(=O)N4CCC(N5CCCCC5)CC4)cc13)-c1cc3c(c(=O)n1C2)COC(=O)[C@]3(O)CC [IRINOTECAN] | 82.8 | 7.53 | 25.1 | 92 | 85 | -3 | 8 | Active | – | – | – | – | – | – | %max [5]: 90%; inhibition in vivo at 30 mg/kg [6]: 90%; %max [9]: 0%; Activity [11]: 8%; Activity [13]: Active |
| CN(C)CC(=O)Nc1ccc(NC(=O)Nc2ccc(N(CCCl)CCCl)cc2)cc1 | 20.1 | 1.53 | 5.76 | – | – | -3 | – | Active | 1.34 | 7.33 | 1.21 | 5.36 | 0.85 | 4.62 | IC50 [14]: 0.29 µM; %max [21]: 72%; inhibition in vivo at 30 mg/kg [22]: 51%; Activity [23]: 3%; Activity [24]: Dose-dependent effect |
| CN(C)CCNC(=O)c1cccc(NC(=O)Nc2ccc(N(CCCl)CCCl)cc2)c1 | – | – | – | 81 | 79 | -7 | 0 | Active | 1.05 | 17.6 | 38.3 | 14.8 | 4.85 | 0.85 | MTD [25]: 30 mg/kg; LD50 at 336 h [26]: 76 mg/kg; %max [27]: 94%; %max [28]: 17%; inhibition in vivo at 40 mg/kg [29]: 89%; inhibition in vivo at 30 mg/kg [30]: 8%; %max [31]: -16%; %max [32]: -16%; Activity [33]: -2%; Activity [34]: -6%; Activity [35]: Active |
